# Earlier results in PubChem BioAssay AID1259409 (Chemical Carcinogenesis Research Information System (CCRIS), 2018).
# System: rodent chemically induced tumor inhibition, incidence and multiplicity
# Assay: CCRIS tumor inhibitor studies
structure (smiles),measurement,setting,value
CCCCCN(CCCCC)C(=O)C(CCC(=O)O)NC(=O)c1ccc(Cl)c(Cl)c1 (stereo not given),"tumour outcome (control, treated, inhibition, significance)","Carcinogen: 7,12-DIMETHYLBENZ[A]ANTHRACENE, 57-97-6, Dose [Inhibitor]: 0, 12 MG/KG 2/D FOR 15 D POST CARCINOGEN TREATMENT (STUDY DURATION: 6 MO), Route [Inhibitor]: SUBCUTANEOUS, Species: RAT, Strain/Sex: SPRAGUE-DAWLEY/MALE, Target Tissue: Type of Lesion: PANCREAS: CARCINOMA, Dose [Carcinogen]: 2-3 MG ONCE, Promoter: CAERULEIN, 17650-98-5","11/15 (73%), 7/15 (47%), 36%, p<0.02"
same,"tumour outcome (control, treated, inhibition, significance)","Carcinogen: AZASERINE, 115-02-6, Dose [Inhibitor]: 0, 12 MG/KG BW 1/D 3 D/WK FOR 8 MO BEGINNING 4 MO POST FIRST CARCINOGEN DOSE (STUDY DURATION: 8 MO), Route [Inhibitor]: SUBCUTANEOUS, Species: RAT, Strain/Sex: WISTAR/MALE, Target Tissue: Type of Lesion: PANCREAS: TUMOR, Dose [Carcinogen]: 30 MG/KG ON DAYS 19, 26, AND 54 OF AGE, Promoter: CHOLECYSTOKININ, 9011-97-6","19/34 (56%), 15/35 (43%), 23%, not significant"
same,"tumour outcome (control, treated, inhibition, significance)","Carcinogen: AZASERINE, 115-02-6, Dose [Inhibitor]: 0, 12 MG/KG BW 1/D 30 MIN PRIOR TO PROMOTER DOSE 3 D/WK FOR 8 MO BEGINNING 4 MO POST FIRST CARCINOGEN DOSE (STUDY DURATI, Route [Inhibitor]: SUBCUTANEOUS, Species: RAT, Strain/Sex: WISTAR/MALE, Target Tissue: Type of Lesion: PANCREAS: TUMOR, Dose [Carcinogen]: 30 MG/KG ON DAYS 19, 26, AND 54 OF AGE, Promoter: BOMBESIN, 31362-50-2","28/37 (76%), 18/32 (56%), 26%, not significant"
C=CCN=C=S,"tumour outcome (control, treated, inhibition, significance)","Carcinogen: 4-(METHYLNITROSAMINO)-1-(3-PYRIDYL)-1-BUTANONE, 64091-91-4, Dose [Inhibitor]: 0, 1 UMOL ONCE 2 HR PRIOR TO CARCINOGEN DOSE (STUDY DURATION: 16 WK), Route [Inhibitor]: GAVAGE, Species: MOUSE, Strain/Sex: STRAIN-A/FEMALE, Target Tissue: Type of Lesion: LUNG: ADENOMA, Dose [Carcinogen]: 10 UMOL IN 0.1 ML SALINE ONCE, Promoter: NONE USED","100%, 100%, 0%, not significant"
same,"tumour outcome (control, treated, inhibition, significance)","Carcinogen: 4-(METHYLNITROSAMINO)-1-(3-PYRIDYL)-1-BUTANONE, 64091-91-4, Dose [Inhibitor]: 0, 5 UMOL ONCE 2 HR PRIOR TO CARCINOGEN DOSE (STUDY DURATION: 16 WK), Route [Inhibitor]: GAVAGE, Species: MOUSE, Strain/Sex: STRAIN-A/FEMALE, Target Tissue: Type of Lesion: LUNG: ADENOMA, Dose [Carcinogen]: 10 UMOL IN 0.1 ML SALINE ONCE, Promoter: NONE USED","100%, 100%, 0%, not significant"
CCOC(=O)/C=C(C)/C=C/C=C(C)/C=C/c1c(C)cc(OC)c(C)c1C,"tumour outcome (control, treated, inhibition, significance)","Carcinogen: 7,12-DIMETHYLBENZ[A]ANTHRACENE, 57-97-6, Dose [Inhibitor]: 140 NMOL IN 0.2 ML ACETONE 2/WK (D 1 AND D 4 OF EACH WK) 1 HR BEFORE EACH PROMOTER APPLICATION STARTING 14 D AFTER CARCI, Route [Inhibitor]: DERMAL, Species: MOUSE, Strain/Sex: CD-1/FEMALE, Target Tissue: Type of Lesion: SKIN: PAPILLOMA, Dose [Carcinogen]: 0.2 UMOL IN 0.2 ML ACETONE ONCE, Promoter: 12-O-TETRADECANOYLPHORBOL-13-ACETATE, 16561-29-8","90%, 38%, 58%, not calculated"
same,"tumour outcome (control, treated, inhibition, significance)","Carcinogen: TRANS-5-AMINO-3-[2-(5-NITRO-2-FURYL)VINYL]-1,2,4-OXADIAZOLE;SQL8506, 28754-68-9, Carcinogen: TRANS-5-AMINO-3-[2-(5-NITRO-2-FURYL)VINYL]-1,2,4-OXADIAZOLE;SQL8506, 28754-68-9, Dose [Inhibitor]: 75 MG/KG 18 HR BEFORE THE 1ST DOSE OF EACH CARCINOGEN TREATMENT (STUDY DURATION: LIFETIME), Route [Inhibitor]: ORAL, Species: MOUSE, Strain/Sex: CD-1/FEMALE, Target Tissue: Type of Lesion: HEMATOPOIETIC SYSTEM: MYELOID LEUKEMIA, Dose [Carcinogen]: 1 G/KG 2/D FOR 5 D EVERY 4 WK FOR 3 COURSES OF TREATMENT, Promoter: NONE USED","7/137 (5%), 0/44 (0%), 100%, not calculated"
same,"tumour outcome (control, treated, inhibition, significance)","Carcinogen: TRANS-5-AMINO-3-[2-(5-NITRO-2-FURYL)VINYL]-1,2,4-OXADIAZOLE;SQL8506, 28754-68-9, Carcinogen: TRANS-5-AMINO-3-[2-(5-NITRO-2-FURYL)VINYL]-1,2,4-OXADIAZOLE;SQL8506, 28754-68-9, Dose [Inhibitor]: 75 MG/KG 18 HR BEFORE THE 1ST DOSE OF EACH CARCINOGEN TREATMENT (STUDY DURATION: LIFETIME), Route [Inhibitor]: ORAL, Species: MOUSE, Strain/Sex: CD-1/FEMALE, Target Tissue: Type of Lesion: LYMPHOID TISSUE: NONTHYMIC LYMPHOMA, Dose [Carcinogen]: 1 G/KG 2/D FOR 5 D EVERY 4 WK FOR 3 COURSES OF TREATMENT, Promoter: NONE USED","8/137 (6%), 6/44 (14%), -133%, not calculated"
same,"tumour outcome (control, treated, inhibition, significance)","Carcinogen: TRANS-5-AMINO-3-[2-(5-NITRO-2-FURYL)VINYL]-1,2,4-OXADIAZOLE;SQL8506, 28754-68-9, Carcinogen: TRANS-5-AMINO-3-[2-(5-NITRO-2-FURYL)VINYL]-1,2,4-OXADIAZOLE;SQL8506, 28754-68-9, Dose [Inhibitor]: 75 MG/KG 18 HR BEFORE THE 1ST DOSE OF EACH CARCINOGEN TREATMENT (STUDY DURATION: LIFETIME), Route [Inhibitor]: ORAL, Species: MOUSE, Strain/Sex: CD-1/FEMALE, Target Tissue: Type of Lesion: LYMPHOID TISSUE: THYMIC LYMPHOMA, Dose [Carcinogen]: 1 G/KG 2/D FOR 5 D EVERY 4 WK FOR 3 COURSES OF TREATMENT, Promoter: NONE USED","22/137 (16%), 5/44 (11%), 31%, not calculated"
same,"tumour outcome (control, treated, inhibition, significance)","Carcinogen: TRANS-5-AMINO-3-[2-(5-NITRO-2-FURYL)VINYL]-1,2,4-OXADIAZOLE;SQL8506, 28754-68-9, Carcinogen: TRANS-5-AMINO-3-[2-(5-NITRO-2-FURYL)VINYL]-1,2,4-OXADIAZOLE;SQL8506, 28754-68-9, Dose [Inhibitor]: 75 MG/KG 18 HR BEFORE THE 1ST DOSE OF EACH CARCINOGEN TREATMENT (STUDY DURATION: LIFETIME), Route [Inhibitor]: ORAL, Species: MOUSE, Strain/Sex: CD-1/FEMALE, Target Tissue: Type of Lesion: STOMACH: SQUAMOUS CARCINOMA, Dose [Carcinogen]: 1 G/KG 2/D FOR 5 D EVERY 4 WK FOR 3 COURSES OF TREATMENT, Promoter: NONE USED","60/137 (44%), 26/44 (59%), -34%, not calculated"
